Where two headings read alike, the source gives them in different places.
Experiments:
[1] = Pharmacokinetics in pediatric patients, open label multiple dose study; conditions: human, in vivo; for AUC: read-out: AUCtau, Mean; for Tmax: read-out: Tmax, Median; for half-life: read-out: T½, Mean (converted)
Procedure: An open label, multiple dose pharmacokinetic and pharmacodynamic study was performed in 24 pediatric patients, ages 6-17 years. […] Blood samples were collected on days one and eight and pharmacokinetics were assessed using a non-compartmental analysis approach.

[2] = Water solubility; type: physicochemical; conditions: between pH 1 and 8
[3] = 2 mg/kg, 6-11 yrs old, 2 mg/kg, Day 1
[4] = 2 mg/kg, 6-11 yrs old, 2 mg/kg, Day 8
[5] = 2 mg/kg, 12-17 yrs old, 2 mg/kg, Day 1
[6] = 2 mg/kg, 12-17 yrs old, 2 mg/kg, Day 8
[7] = 6 mg/kg, 6-11 yrs old, 6 mg/kg, Day 1
[8] = 6 mg/kg, 6-11 yrs old, 6 mg/kg, Day 8
[9] = 6 mg/kg, 12-17 yrs old, 6 mg/kg, Day 1
[10] = 6 mg/kg, 12-17 yrs old, 6 mg/kg, Day 8

## COCCCOc1cc(C[C@@H](C[C@H](N)[C@@H](O)C[C@H](C(=O)NCC(C)(C)C(N)=O)C(C)C)C(C)C)ccc1OC [Aliskiren, 2(S),4(S),5(S),7(S)—N-(3-amino-2,2-dimethyl-3-oxopropyl)-2,7-di(1-methylethyl)-4-hydroxy-5-amino-8-[4-methoxy-3-(3-methoxy-propoxy)phenyl]-octanamide]
[1]; [3]
  Cmax: 0.039 µg/mL
  AUC: 0.149 µg·h/mL
  Tmax: 0.5 h
[1]; [4]
  Cmax: 0.048 µg/mL
  AUC: 0.24 µg·h/mL
  Tmax: 0.5 h
  half-life: 40 h
[1]; [5]
  Cmax: 0.136 µg/mL
  AUC: 0.391 µg·h/mL
  Tmax: 1 h
[1]; [6]
  Cmax: 0.279 µg/mL
  AUC: 0.846 µg·h/mL
  Tmax: 1 h
  half-life: 40 h
[1]; [7]
  Cmax: 0.323 µg/mL
  AUC: 1.84 µg·h/mL
  Tmax: 1.3 h
[1]; [8]
  Cmax: 0.259 µg/mL
  AUC: 0.956 µg·h/mL
  Tmax: 0.8 h
  half-life: 36 h
[1]; [9]
  Cmax: 0.424 µg/mL
  AUC: 1.8 µg·h/mL
  Tmax: 1.8 h
[1]; [10]
  Cmax: 0.486 µg/mL
  AUC: 2.09 µg·h/mL
  Tmax: 2 h
  half-life: 42 h
[2]
  solubility: > 350 mg/mL

From patent US20110287100A1, “Galenic Formulations of Organic Compounds” (priority 2009, published 2011)
